# Laboratory results published in patent US9096591B2, “Tetracyclic compounds” (Medivation Technologies, Inc., priority 2007, dated 2015).
# Legend:
# [1] = target: T1, Serotonin (5-Hydroxytryptamine) 5-HT7 (Homo sapiens, UniProt P34969); test: Serotonin 5-HT7 radioligand binding ([3H]LSD); set-up: Inhibition of ligand binding, Ser. 5-HT7: concentration or dose not given beside the values; details: percent inhibition of specific binding
# T1 construct: expressed in transfected cells; host or cells: CHO cells
# T1 sequence (P34969 whole entry): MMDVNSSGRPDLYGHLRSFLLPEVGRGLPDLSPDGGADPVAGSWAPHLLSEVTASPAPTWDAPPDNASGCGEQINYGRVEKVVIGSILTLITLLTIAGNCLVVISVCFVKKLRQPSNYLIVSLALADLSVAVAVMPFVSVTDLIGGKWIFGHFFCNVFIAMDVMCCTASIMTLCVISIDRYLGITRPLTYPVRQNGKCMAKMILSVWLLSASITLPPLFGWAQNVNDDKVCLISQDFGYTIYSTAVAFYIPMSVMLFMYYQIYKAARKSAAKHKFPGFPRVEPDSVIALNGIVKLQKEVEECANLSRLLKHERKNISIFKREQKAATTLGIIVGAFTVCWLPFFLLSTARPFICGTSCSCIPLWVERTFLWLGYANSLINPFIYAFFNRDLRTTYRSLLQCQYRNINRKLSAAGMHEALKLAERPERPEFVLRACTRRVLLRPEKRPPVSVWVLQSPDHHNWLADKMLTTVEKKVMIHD
# Method: Lysergic acid diethylamide (LSD) for 2 hours at 25° C. […] Receptor proteins were filtered and washed, the filters were then counted to determine [^3H]LSD specifically bound. […] Biochemical assay results are presented as the percent inhibition of specific binding in Table 6.
# C57BL/6 mice [2] = test: Recognition of the new object (non-spatial recognition memory); format: in vivo
# Excerpt: The object recognition test is based on the fact that mice and rats spontaneously explore new object or location of a known object a lot longer than the know object or a known location of an object. This test was first used in rats (Ennaceur A., Delacour J., 1988). It was further shown by others that this type of memory testing is suitable for mice (Dodart J. et al. 1997, Messier C. 1997, Pittenger C. et al., 2002, Ryabinin A. et al., 2002, Sargolini F. et al., 2003). The method of recognition of an object is divided in two stages. The first one involves the recognition of a new location of a known object, which is used to assess spatial memory. The second one includes a test for recognition of a new in order to evaluate the non-spatial memory (Gaffan D., 1992, Kolb B. et al., 1994, Steckler T., 1998). Currently, both are widely used to determine the effectiveness of newly synthesized drugs on memory.
# Dimebon and compounds of the invention were dissolved in distilled water and administered orally at 0.05 mL per 10 g of animal mass 1 hour before the training exercise. All animals in the control group were treated with the equivalent dose of vehicle. The testing was performed 48 hours after the training exercise because animals forget the location of the object during the 48-hour resting time.
# The following experiment was also performed on 3-4 months old males (C57BL/6 line) with 10 animals in each group. All animals were kept in the animal facility (5 animals per cage) on the 12×12 hours light cycle (8 am-8 pm) with free access to food and water. However, in this case a round bottom testing chamber 52 cm in diameter (20.5 inches) and 34 cm (13.4 inches) high was used. Similarly, brown glass vials were used as test objects which are 2.7 cm in diameter (1.1 inch) and 5.5 cm high (2.2 inch). The testing compounds were administered orally at 0.05 mL per 10 g of animal mass 1 hour before the training exercise. All animals in the control group were treated with the equivalent dose of vehicle. The testing was performed 48 hours after the training exercise because animals forget the location of the object during the 48-hour resting time.
# The experimental procedure was identical to the previously described test (Recognition of a new location of a known object). The major difference is in the testing procedure which involved one known object (brown glass vial) and one unknown object. The second glass vial was substituted with metallic cylinder 3 cm (1.2 inches) in diameter and 4.5 cm (1.8 inches) high.
# Due to fair differences in the amount of time that each animal surveyed the object, the percentage of the survey time for each animal was determined using this formula: tNL/(tFL+tNL)×100 (where t is time, NL—new location(object), and FL—familiar location(object)). As 100% was taken the total amount of time that animals explored both objects. Subsequently, the statistical significance was analyzed using a Student's t-test criteria.
# mice = test: recognition test of new location of a known object (spatial memory); format: in vivo
# C57BL/6 mice [3] = details: 0.01-0.1 mg/kg; previously shown; cited from earlier work
# rat brain mitochondria = test: Mitochondrial membrane potential (safranine test); format: biochemical, Wistar rats; details: compounds did react with safranine in buffer without mitochondria
# Method: The same experimental conditions were used for the assessment of alterations of the mitochondrial membrane potential, except that safranine was included in incubation medium at a final concentration of 10 mkM and succinate was added before the compounds of the invention. This concentration of safranine was determined before hand as the optimal compromise between signal/baseline ratio and interference of safranine itself with swelling induced by Ca/Pi (safranine tended to enhance Ca/Pi-induced swelling at concentrations above 20 mkM). Changes in the status of the mPT pore were assessed spectrophotometrically at 554 and 524 nm in a cuvette in a Beckman DU 640 spectrophotometer. A554-524 represents the characteristics of mitochondrial potential and A554-characteristics of mitochondrial swelling.
# [4] = 0.05 mg/kg, 1 hour prior to training, test 48 hours after training
smiles,measurement,setting,value
CN1CCc2c(c3cc(Cl)ccc3n2CCc2ccc(C(F)(F)F)nc2)C1 [Compound 250],"Inhibition of ligand binding, Ser. 5-HT7",[1],93%
"Cc1ccc2c(c1)c1c(n2CCc2ccc(C)nc2)CCN(C)C1 [Dimebon, dimebon, reference compound]",effect on memory in the new object recognition test,C57BL/6 mice [2]; 0.005 mg/kg,memory activating effect
same,"time spent to recognize the known object, % of the total time",C57BL/6 mice [2]; [4],34.4±4.4%
same,"time spent to recognize the new object, % of the total time",C57BL/6 mice [2]; [4],65.6±4.4%
same,effect on memory in the new object recognition test,C57BL/6 mice [2]; 0.5 mg/kg,not statistically significant
same,effect on memory in the new object recognition test,C57BL/6 mice [2]; 1-2 mg/kg,the stimulating effect on memory returned
same,Influence on memory in the test recognition new localization of known object,mice; Dose of Compound 0.05 mg/kg,+
same,Influence on memory in the test recognition new localization of known object,mice; Dose of Compound 0.1 mg/kg,+
same,Influence on memory in the test recognition new localization of known object,mice; Dose of Compound 0.5 mg/kg,−
same,Influence on memory in the test recognition new localization of known object,mice; Dose of Compound 1.0 mg/kg,−
same,effect on memory in the recognition test of a known object in a new location,C57BL/6 mice [3],dose-dependent activating effect on memory
CN1CCc2c(c3cc(Cl)ccc3n2CCc2nc(-c3ccccc3)cs2)C1 [Compound C1-8],depolarizing activity in safranine test,rat brain mitochondria,depolarizing activity
